Here are results for six molecules from publication PMC8113725, “Structure–activity relationship of ipglycermide binding to phosphoglycerate mutases” (The Journal of Biological Chemistry, 2021).

Experiment [1] deals with T1, C. elegans iPGM (Caenorhabditis elegans, UniProt G5EFZ1). Description: PGM enzyme assay (enolase–pyruvate kinase coupled, Kinase-Glo Plus end point) and IC50 determination. The class given is biochemical. To be noted: for IC50: iPGM ortholog not given. In general terms: Kinase-Glo reads ATP consumption through a luciferase reaction.
The target of experiment [2] is D. immitis iPGM (Dirofilaria immitis, UniProt F4ZE01). Description: biochemical. As to conditions: Di iPGM Ave IC50 (M).
Experiment [3] deals with T2, E. coli iPGM (Escherichia coli, UniProt P37689). Description: biochemical.
The target in experiment [4] is T1, C. elegans iPGM. As to the kind of experiment: SPR binding kinetics and saturation binding, biotinylated iPGM on Biotin CAPture chip (Biacore S200). A general note: Surface plasmon resonance follows binding to a sensor surface in real time, without labels.
Experiment [5] concerns the target T3, B. malayi iPGM (Brugia malayi, UniProt Q4VWF8).
T3 sequence (Q4VWF8 1-515): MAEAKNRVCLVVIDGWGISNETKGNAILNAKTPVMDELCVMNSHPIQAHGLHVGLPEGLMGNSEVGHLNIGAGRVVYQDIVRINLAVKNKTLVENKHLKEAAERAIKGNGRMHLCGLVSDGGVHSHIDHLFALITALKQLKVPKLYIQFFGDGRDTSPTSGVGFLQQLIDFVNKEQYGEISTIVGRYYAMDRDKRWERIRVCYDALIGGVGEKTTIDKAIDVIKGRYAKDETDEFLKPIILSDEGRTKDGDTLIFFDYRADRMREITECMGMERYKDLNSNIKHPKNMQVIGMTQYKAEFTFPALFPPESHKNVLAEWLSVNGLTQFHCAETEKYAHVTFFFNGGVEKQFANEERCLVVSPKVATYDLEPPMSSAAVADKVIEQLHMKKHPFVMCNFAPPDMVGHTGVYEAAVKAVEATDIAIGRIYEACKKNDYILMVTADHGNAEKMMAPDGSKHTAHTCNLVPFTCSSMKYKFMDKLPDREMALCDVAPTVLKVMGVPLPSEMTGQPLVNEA
As to the kind of experiment: biochemical. The class given is binding.

The target of experiment [6] is T1, C. elegans iPGM. As to conditions: read-out: KD, prior estimate; zone boundary analysis from a cross-titration of C. elegans iPGM enzyme versus Ce-2; cited from earlier work.
Experiment [7] has as its target T2, E. coli iPGM. Description: SPR binding kinetics and saturation binding, biotinylated iPGM on Biotin CAPture chip (Biacore S200). As to conditions: for koff / kon: LoQ = limit of quantitation.
Experiment [8] concerns the target T4, Ce-2 Thr13Ser (synthetic construct, thioether N-8).
T4 chain: {CH2CO}-[dY]DYPGDYCYLYGSC
As to the kind of experiment: SPR.

Experiment [9] concerns the target T5, Ce-1 NHOH (synthetic construct, thioether N-8; SMILES …).
T5 chain: {CH2CO}-[dY]DYPGDHCYLYGT-{NHOH}
Description: SPR.

For experiment [10], the target named is T6, Ce-2 (synthetic construct, thioether N-8).
T6 chain: {CH2CO}-[dY]DYPGDYCYLYGTC
As to the kind of experiment: SPR.

Setting [11] is: SPR, 25 °C, global fit to 1:1 binding model.
Setting [12] is: SPR, Req hyperbolic fit where steady state reached, else koff/kon.
The mark [13] stands for this setting: Supplementary Table 5, SPR, E.c. iPGM.

Where two headings read alike, the source gives them in different places. Bridge positions count the residues as written; N and C are the ends. Square brackets hold non-standard residues; d marks the D form. Ends that are not written are not given here. Peptide text beside a SMILES is read from it. * marks the point of attachment. NHOH = ON*

`CC(=O)N[C@@H](Cc1ccc(O)cc1)C(=O)NCC(=O)N[C@H](C(=O)N[C@@H](CS)C(N)=O)[C@@H](C)O` [Ac-YGTCNH2, Ac-YGTC-CONH2] (Ac-YGTC-NH2): the concentration for half-maximal inhibition (IC50) in [1] (IC50, metal-ion–coordinating sequence alone) is more than 500 µM; in [2], more than 0.001 M.

With `CC(C)C[C@H](NC(=O)[C@H](Cc1ccc(O)cc1)NC(=O)[C@@H]1CSCC(=O)N[C@H](Cc2ccc(O)cc2)C(=O)N[C@@H](CC(=O)O)C(=O)N[C@@H](Cc2ccc(O)cc2)C(=O)N2CCC[C@H]2C(=O)NCC(=O)N[C@@H](CC(=O)O)C(=O)N[C@@H](Cc2ccc(O)cc2)C(=O)N1)C(=O)N[C@@H](Cc1ccc(O)cc1)C(=O)NCC(=O)N[C@H](C(=O)N[C@@H](CS)C(N)=O)[C@@H](C)O` [Ce-2], the IC50 in experiment [3] (IC50) is more than 0.1 µM; in experiment [3] ([…]), 0.129 µM; in experiment [2], 8.27e-10 M. The Kd is 38.2 pM in experiment [4]; 0.0005 µM in [5] (setting [12]); 0.00047 µM in experiment [5] (Supplementary Table 5, SPR, B.m. iPGM, unit inferred); 70 pM in experiment [6]; approximately 0.07 µM in [7] (setting [12]); 0.0692 µM in experiment [7] (Supplementary Table 5, SPR, E.c. iPGM, unit inferred). Further, the koff in [4] amounted to 3.23e-05 s⁻¹; in [4] (setting [11]), 3.2e-05 s⁻¹; in [5], 0.000224 s⁻¹; in [5] (setting [11]) it was 0.00022 s⁻¹; in experiment [7] (SPR, 25 °C, global fit to 1:1 binding model, read-out: koff), 0.0048 s⁻¹; in experiment [7] (setting [13]), 0.00484 s⁻¹. Further, the kon in [4] came out at 1.11e+06 M⁻¹ s⁻¹; in experiment [4] (setting [11]), 1.1e+06 M⁻¹ s⁻¹; in experiment [5], 482000 M⁻¹ s⁻¹; in experiment [5] (setting [11]), 480000 M⁻¹ s⁻¹; in experiment [7] (SPR, 25 °C, global fit to 1:1 binding model, read-out: kon), 100000 M⁻¹ s⁻¹; in [7] (setting [13]), 102000 M⁻¹ s⁻¹.

Take `CC[C@H](C)[C@H](NC(=O)[C@H](Cc1ccc(O)cc1)NC(=O)[C@@H]1CSCC(=O)N[C@H](Cc2ccc(O)cc2)C(=O)N[C@@H](CC(=O)O)C(=O)N[C@@H](Cc2ccc(O)cc2)C(=O)N2CCC[C@H]2C(=O)NCC(=O)N[C@@H](CC(=O)O)C(=O)N[C@@H](Cc2ccc(O)cc2)C(=O)N1)C(=O)N[C@@H](Cc1ccc(O)cc1)C(N)=O` [Ce-2d L10I]: the IC50 was 0.025 µM in experiment [1] (IC50, text, C. elegans by contrast with nematode orthologs) and 5.03e-07 M in [2].

Consider `CC(C)C[C@@H]1NC(=O)[C@H](Cc2ccc(O)cc2)NC(=O)[C@H](CS)NC(=O)[C@H](Cc2ccc(O)cc2)NC(=O)[C@H](CC(=O)O)NC(=O)CNC(=O)[C@@H]2CCCN2C(=O)[C@H](Cc2ccc(O)cc2)NC(=O)[C@H](CC(=O)O)NC(=O)[C@@H](Cc2ccc(O)cc2)NC(=O)CSC[C@@H](C(N)=O)NC(=O)[C@H]([C@@H](C)O)NC(=O)CNC(=O)[C@H](Cc2ccc(O)cc2)NC1=O` [Ce-2 [Y1-->C14]], for which, in experiment [1], the inhibitory activity result is “inactive”. For the same molecule, in experiment [2], the IC50 was 6.52e-06 M.

B1: iPGM (protein)
chain: MFVALGAQIYRQYFGRRGMAMANNSSVANKVCLIVIDGWGVSEDPYGNAILNAQTPVMDKLCSGNWAQIEAHGLHVGLPEGLMGNSEVGHLNIGAGRVIYQDIVRINLAVKNNKFVTNESLVDACDRAKNGNGRLHLAGLVSDGGVHSHIDHMFALVKAIKELGVPELYLHFYGDGRDTSPNSGVGFLEQTLEFLEKTTGYGKLATVVGRYYAMDRDNRWERINVAYEAMIGGVGETSDEAGVVEVVRKRYAADETDEFLKPIILQGEKGRVQNDDTIIFFDYRADRMREISAAMGMDRYKDCNSKLAHPSNLQVYGMTQYKAEFPFKSLFPPASNKNVLAEWLAEQKVSQFHCAETEKYAHVTFFFNGGLEKQFEGEERCLVPSPKVATYDLQPEMSAAGVADKMIEQLEAGTHPFIMCNFAPPDMVGHTGVYEAAVKACEATDIAIGRIYEATQKHGYSLMVTADHGNAEKMKAPDGGKHTAHTCYRVPLTLSHPGFKFVDPADRHPALCDVAPTVLAIMGLPQPAEMTGVSIVQKI
B1: the Kd in [8] turned out to be 29 pM; in experiment [9] it was 0.00011 µM; in [10], 38 pM.

B2: iPGM (protein)
chain: MAEAKNRVCLVVIDGWGISNETKGNAILNAKTPVMDELCVMNSHPIQAHGLHVGLPEGLMGNSEVGHLNIGAGRVVYQDIVRINLAVKNKTLVENKHLKEAAERAIKGNGRMHLCGLVSDGGVHSHIDHLFALITALKQLKVPKLYIQFFGDGRDTSPTSGVGFLQQLIDFVNKEQYGEISTIVGRYYAMDRDKRWERIRVCYDALIGGVGEKTTIDKAIDVIKGRYAKDETDEFLKPIILSDEGRTKDGDTLIFFDYRADRMREITECMGMERYKDLNSNIKHPKNMQVIGMTQYKAEFTFPALFPPESHKNVLAEWLSVNGLTQFHCAETEKYAHVTFFFNGGVEKQFANEERCLVVSPKVATYDLEPPMSSAAVADKVIEQLHMKKHPFVMCNFAPPDMVGHTGVYEAAVKAVEATDIAIGRIYEACKKNDYILMVTADHGNAEKMMAPDGSKHTAHTCNLVPFTCSSMKYKFMDKLPDREMALCDVAPTVLKVMGVPLPSEMTGQPLVNEA
On to B2, for which the Kd in experiment [8] came out at 85 pM; in [9] it was 0.012 µM; in [10], 500 pM.

In general, IC50 refers to the midpoint of a concentration-inhibition curve. For orientation: Kd means the concentration at which binding is half-saturated. One may read the koff as a measure of how fast the partners let go of each other. A word on the kon: it is a measure of how fast the partners come together.
